# Source: US20250073226A1, “USE OF OPIOID FOR TREATMENT OF AUTISM SPECTRUM DISORDERS” (priority 2021, published 2025)
# Where “and” joins values, the source holds several entries; their conditions need not be identical. Equal entries are not always repeated. Marks after values point to notes of the source that are not given here.
# Legend:
# [1] = system: valproic acid model mice (VPA model); assay: Social interaction test in valproic acid model mice; format: in vivo, ICR mice; conditions: single s.c. dose
# Excerpt: Since ASD-like symptoms such as social impairment and cognitive dysfunction are observed, it is one of the most widely used the ASD model mice.
# As the sociality evaluation, a method called a social interaction test was used. In the Social Interaction Test, two mice are placed in one cage, and how many seconds a target mouse (Test mouse) performs sniffing, which is social behavior, on another mouse (Intruder mouse) is quantified.
# VPA model [2] = assay: Confirmation of continuous effect: social behavior in VPA model 3 or 12 hours after administration; format: in vivo, mice; conditions: 0.003 mg/kg s.c.
# Procedure: Saline or buprenorphine was subcutaneously administered to the VPA model in the same manner as in Example 1, and the amount of social behavior for 20 minutes from 3 hour after administration or for 20 minutes from 12 hours after administration was quantified. The improvement effect in social impairment by administration of 0.003 mg/kg of buprenorphine was observed even 3 hours and 12 hours after administration.
# VPA model [3] = assay: Antagonist test with naloxone in VPA model; format: in vivo, mice; conditions: naloxone hydrochloride 1 mg/kg s.c. 15 minutes before buprenorphine 0.003 mg/kg s.c.
# Procedure: In the same manner as in Example 1, to the VPA model, Saline or a MOR selective antagonist, naloxone hydrochloride was subcutaneously administered so as to be 1 mg/kg as a hydrochloride, and 15 minutes after that, 0.003 mg/kg of buprenorphine was subcutaneously administered, and the amount of social behavior for 1 hour from 20 minutes after administration of buprenorphine was quantified.
# nucleus accumbens (NAc) = assay: Brain activation: c-Fos positive cells in nucleus accumbens; format: in vivo, mice; conditions: VPA model, 1 hour after administration
# Procedure: (§1) Saline or buprenorphine at 0.0003, 0.003, or 0.03 mg/kg was administered to the VPA model, and 1 hour after that, the brain was extracted and immunostained with an anti-c-Fos antibody, and the number of c-Fos positive cells in nucleus accumens (NAc) and medial prefrontal cortex, which are brain regions known to promote social behavior, and dorsomedial periaqueductal gray (dmPAG), which is a brain region known to reduce social behavior and to be involved in the expression of analgesic effects, was quantified as the number of activated nerve cells.
# [4] = system: dorsomedial periaqueductal gray (dmPAG); assay: Brain activation: c-Fos positive cells in dorsomedial periaqueductal gray; format: in vivo, mice; conditions: VPA model, 1 hour after administration
# Procedure: as §1
# mice = conditions: Non-patent Document 28, cited from earlier work
# [5] = Pharmacokinetic: drug concentrations in plasma by LC-MS after subcutaneous administration; conditions: for concentration at 0.5 h: Plasma concentration 0.5 hr; for concentration at 1 h: Plasma concentration 1 hr; for concentration at 3 h: Plasma concentration 3 hr; for concentration at 12 h: Plasma concentration 12 hr; for concentration at 24 h: Plasma concentration 24 hr
# [6] = Estimation of buprenorphine maximum plasma concentration in humans by proportional calculation; conditions: human, other: transdermal, 10 ug/kg
# Procedure: As described above, preferred maximum plasma concentrations in ASD applications in mice are in the range of 26.6 pg/mL (at the time of administration of 0.3 pg/kg) to 2360 μg/mL (at the time of administration of 30p/kg) (preferably more than about 26.6 pg/mL and less than about 2360 μg/mL).
# [7] = ICR mice, buprenorphine 0.1 μg/kg s.c., individual samples
# [8] = ICR mice, buprenorphine 0.3 μg/kg s.c., individual samples
# [9] = ICR mice, buprenorphine 3 μg/kg s.c., individual samples
# [10] = ICR mice, buprenorphine 10 μg/kg s.c., individual samples
# [11] = ICR mice, buprenorphine 30 μg/kg s.c., individual samples
# [12] = ICR, mouse, plasma, sc, 0.1 μg/kg, ICR mice, buprenorphine 0.1 μg/kg s.c., Mean
# [13] = ICR, mouse, plasma, sc, 0.1 μg/kg, ICR mice, buprenorphine 0.1 μg/kg s.c., individual samples
# [14] = ICR, mouse, plasma, sc, 0.3 μg/kg, ICR mice, buprenorphine 0.3 μg/kg s.c., Mean
# [15] = ICR, mouse, plasma, sc, 0.3 μg/kg, ICR mice, buprenorphine 0.3 μg/kg s.c., individual samples
# [16] = ICR, mouse, plasma, sc, 1 μg/kg, ICR mice, buprenorphine 1 μg/kg s.c., Measured value
# [17] = ICR, mouse, plasma, sc, 3 μg/kg, ICR mice, buprenorphine 3 μg/kg s.c., Mean
# [18] = ICR, mouse, plasma, sc, 3 μg/kg, ICR mice, buprenorphine 3 μg/kg s.c., individual samples
# [19] = ICR, mouse, plasma, sc, 10 μg/kg, ICR mice, buprenorphine 10 μg/kg s.c., Mean
# [20] = ICR, mouse, plasma, sc, 10 μg/kg, ICR mice, buprenorphine 10 μg/kg s.c., individual samples
# [21] = ICR, mouse, plasma, sc, 30 μg/kg, ICR mice, buprenorphine 30 μg/kg s.c., Mean
# [22] = ICR, mouse, plasma, sc, 30 μg/kg, ICR mice, buprenorphine 30 μg/kg s.c., individual samples
structure (smiles),measurement,setting,value
"CO[C@]12CC[C@@]3(C[C@@H]1[C@](C)(O)C(C)(C)C)[C@H]1Cc4ccc(O)c5c4[C@@]3(CCN1CC1CC1)[C@H]2O5 [buprenorphine, 21-cyclopropyl-7-a-[(S)-1-hydroxy-1,2,2-trimethylpropyl]-6,14-endo-ethano-6,7,8,14 tetrahydrooripavine]",improvement effect in social impairment at a high dose,[1]; high dose close to the analgesic dose,reduced the improvement effect in social impairment
same,improvement effect in social impairment,"[1]; low dose of less than 1/10 of the dose of maximum analgesic effect, 20 minutes from 1 hour after administration",significant improvement effect in social impairment
same,improvement effect in social impairment 3 hours after administration,VPA model [2]; 20 minutes from 3 hour after administration,observed
same,improvement effect in social impairment 12 hours after administration,VPA model [2]; 20 minutes from 12 hours after administration,observed
same,improvement effect in social impairment with combined use of naloxone,VPA model [3],antagonized by combined use of naloxone
same,number of activated nerve cells (c-Fos positive cells),nucleus accumbens (NAc); 0.003 mg/kg,significantly increased
same,number of activated nerve cells (c-Fos positive cells),nucleus accumbens (NAc); 0.03 mg/kg,significantly increased
same,number of activated nerve cells (c-Fos positive cells),[4]; 0.003 mg/kg,no change
same,number of activated nerve cells (c-Fos positive cells),[4]; 0.03 mg/kg,significantly increased
same,dose at which the analgesic effect was maximum,mice,1 mg/kg
same,minimum dose at which the analgesic effect is observed,mice; subcutaneous administration,0.01 mg/kg
same,Plasma concentration 0.5 hr,[5]; [7],6.85 pg/mL and 6.52 pg/mL
same,Plasma concentration 1 hr,[5]; [7],4.66 pg/mL and 5.36 pg/mL
same,Plasma concentration 3 hr,[5]; [7],BLQ (BLQ: LLOQ (lower limit of quantitation: 2 pg/mL) or less)
same,Plasma concentration 12 hr,[5]; [7],BLQ (BLQ: LLOQ (lower limit of quantitation: 2 pg/mL) or less)
same,Plasma concentration 24 hr,[5]; [7],BLQ (BLQ: LLOQ (lower limit of quantitation: 2 pg/mL) or less)
same,Plasma concentration 0.5 hr,[5]; [8],26 pg/mL and 30.9 pg/mL
same,Plasma concentration 1 hr,[5]; [8],13.7 pg/mL and 16.5 pg/mL
same,Plasma concentration 3 hr,[5]; [8],5.08 pg/mL and 4.87 pg/mL
same,Plasma concentration 12 hr,[5]; [8],BLQ (BLQ: LLOQ (lower limit of quantitation: 2 pg/mL) or less)
same,Plasma concentration 24 hr,[5]; [8],BLQ (BLQ: LLOQ (lower limit of quantitation: 2 pg/mL) or less)
same,Cmax,"[5]; ICR mice, buprenorphine 1 μg/kg s.c.",0.067 ng/mL
same,Plasma concentration 0.5 hr,[5]; [9],260 pg/mL and 271 pg/mL
same,Plasma concentration 1 hr,[5]; [9],119 pg/mL and 127 pg/mL
same,Plasma concentration 3 hr,[5]; [9],47.6 pg/mL and 83.3 pg/mL
same,Plasma concentration 12 hr,[5]; [9],0.00358 ng/mL and 0.00346 ng/mL
same,Plasma concentration 24 hr,[5]; [9],BLQ (BLQ: LLOQ (lower limit of quantitation: 2 pg/mL) or less)
same,Cmax,"[5]; ICR mice, buprenorphine 10 μg/kg s.c.",0.67 ng/mL
same,Plasma concentration 0.5 hr,[5]; [10],711* pg/mL and 666* pg/mL
same,Plasma concentration 1 hr,[5]; [10],471* pg/mL and 367* pg/mL
same,Plasma concentration 3 hr,[5]; [10],145 pg/mL and 135 pg/mL
same,Plasma concentration 12 hr,[5]; [10],0.0171 ng/mL and 0.0271 ng/mL and 0.00669 ng/mL
same,Plasma concentration 24 hr,[5]; [10],BLQ (BLQ: LLOQ (lower limit of quantitation: 2 pg/mL) or less)
same,Cmax,"[5]; ICR mice, buprenorphine 30 μg/kg s.c.",2.36 ng/mL
same,Plasma concentration 0.5 hr,[5]; [11],2560* pg/mL and 2770* pg/mL
same,Plasma concentration 1 hr,[5]; [11],1480* pg/mL and 1670* pg/mL
same,Plasma concentration 3 hr,[5]; [11],436* pg/mL and 494* pg/mL
same,Plasma concentration 12 hr,[5]; [11],0.0312 ng/mL and 0.0727 ng/mL and 0.0313 ng/mL
same,Plasma concentration 24 hr,[5]; [11],0.00768 ng/mL and 0.0042 ng/mL
same,Cmax,"[5]; ICR, mouse, plasma, sc, 0.1 ug/kg",0.00778 ng/mL
same,concentration at 0.5 h,[5]; [12],0.00778 ng/mL
same,concentration at 0.5 h,[5]; [13],0.00998 ng/mL
same,concentration at 1 h,[5]; [12],0.00485 ng/mL
same,concentration at 1 h,[5]; [13],0.00452 ng/mL
same,concentration at 3 h,[5]; [12],0.001 ng/mL
same,concentration at 3 h,[5]; [13],0.00299 ng/mL
same,concentration at 12 h,[5]; [12],0 ng/mL
same,concentration at 24 h,[5]; [12],0 ng/mL
same,Cmax,"[5]; ICR, mouse, plasma, sc, 0.3 ug/kg",0.0266 ng/mL
same,concentration at 0.5 h,[5]; [14],0.0266 ng/mL
same,concentration at 0.5 h,[5]; [15],0.0228 ng/mL
same,concentration at 1 h,[5]; [14],0.0148 ng/mL
same,concentration at 1 h,[5]; [15],0.0143 ng/mL
same,concentration at 3 h,[5]; [14],0.00477 ng/mL
same,concentration at 3 h,[5]; [15],0.00436 ng/mL
same,concentration at 12 h,[5]; [14],0 ng/mL
same,concentration at 24 h,[5]; [14],0 ng/mL
same,Cmax,"[5]; ICR, mouse, plasma, sc, 1 ug/kg",0.067 ng/mL
same,concentration at 0.5 h,[5]; [16],0.067 ng/mL
same,concentration at 1 h,[5]; [16],0.025 ng/mL
same,concentration at 3 h,[5]; [16],0.02 ng/mL
same,Cmax,"[5]; ICR, mouse, plasma, sc, 3 ug/kg",0.268 ng/mL
same,concentration at 0.5 h,[5]; [17],0.268 ng/mL
same,concentration at 0.5 h,[5]; [18],0.274 ng/mL
same,concentration at 1 h,[5]; [17],0.126 ng/mL
same,concentration at 1 h,[5]; [18],0.132 ng/mL
same,concentration at 3 h,[5]; [17],0.0641 ng/mL
same,concentration at 3 h,[5]; [18],0.0613 ng/mL
same,concentration at 12 h,[5]; [17],0.00312 ng/mL
same,concentration at 12 h,[5]; [18],0.00231 ng/mL
same,concentration at 24 h,[5]; [17],0 ng/mL
same,Cmax,"[5]; ICR, mouse, plasma, sc, 10 ug/kg",0.67 ng/mL
same,concentration at 0.5 h,[5]; [19],0.67 ng/mL
same,concentration at 0.5 h,[5]; [20],0.632 ng/mL
same,concentration at 1 h,[5]; [19],0.399 ng/mL
same,concentration at 1 h,[5]; [20],0.358 ng/mL
same,concentration at 3 h,[5]; [19],0.147 ng/mL
same,concentration at 3 h,[5]; [20],0.16 ng/mL
same,concentration at 12 h,[5]; [19],0.017 ng/mL
same,concentration at 24 h,[5]; [19],0.000777 ng/mL
same,concentration at 24 h,[5]; [20],0.00233 ng/mL
same,Cmax,"[5]; ICR, mouse, plasma, sc, 30 ug/kg",2.36 ng/mL
same,concentration at 0.5 h,[5]; [21],2.36 ng/mL
same,concentration at 0.5 h,[5]; [22],1.76 ng/mL
same,concentration at 1 h,[5]; [21],1.49 ng/mL
same,concentration at 1 h,[5]; [22],1.32 ng/mL
same,concentration at 3 h,[5]; [21],0.447 ng/mL
same,concentration at 3 h,[5]; [22],0.412 ng/mL
same,concentration at 12 h,[5]; [21],0.0451 ng/mL
same,concentration at 24 h,[5]; [21],0.00551 ng/mL
same,concentration at 24 h,[5]; [22],0.00464 ng/mL
same,Cmax,[6],0.084 to 0.176 ng/mL
